The values that follow are results of earlier work, collected in patent US20100137246A1, “Anti-inflammatory compositions and methods” (Searete LLC, a limited liability corporation of the State …, priority 2008, published 2010).

The target in data set [1] is Fyn (Homo sapiens, UniProt P06241). Conditions: at nanomolar concentrations.
The test system of data set [2] is Src family kinase.
The conditions of data set [3]: single agent, infused at 400 mg over one hour.
The test system of data set [4] is proteasome. Conditions: cultured breast cancer cells; through binding copper.
For data set [5], the system named is lethal septic shock in mice.

Sequence of Fyn (P06241 whole entry, species assumed): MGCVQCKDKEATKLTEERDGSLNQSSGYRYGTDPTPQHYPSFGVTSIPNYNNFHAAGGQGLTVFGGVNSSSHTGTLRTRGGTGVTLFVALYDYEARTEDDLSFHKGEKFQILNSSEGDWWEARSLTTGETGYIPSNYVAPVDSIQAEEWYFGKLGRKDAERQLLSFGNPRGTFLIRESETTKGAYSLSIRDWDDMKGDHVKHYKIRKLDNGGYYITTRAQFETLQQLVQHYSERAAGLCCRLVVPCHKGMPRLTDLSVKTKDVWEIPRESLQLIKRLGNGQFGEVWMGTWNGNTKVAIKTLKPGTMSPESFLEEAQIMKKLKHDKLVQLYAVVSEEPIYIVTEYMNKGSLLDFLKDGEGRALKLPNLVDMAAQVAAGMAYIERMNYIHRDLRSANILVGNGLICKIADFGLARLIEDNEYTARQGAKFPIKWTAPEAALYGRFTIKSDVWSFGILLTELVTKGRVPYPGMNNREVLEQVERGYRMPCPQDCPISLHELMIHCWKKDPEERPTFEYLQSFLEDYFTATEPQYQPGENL

As to `Cc1nc(Nc2ncc(C(=O)Nc3c(C)cccc3Cl)s2)cc(N2CCN(CCO)CC2)n1.O` [dasatinib, N-(2-chloro-6-methylphenyl)-2-[[6-[4-(2-hydroxyethyl)-1-piperazinyl]-2-methyl-4-pyrimidinyl]amino]-5-thiazolecarboxamide, monohydrate], the “inhibition of Fyn” value in data set [1] is “inhibits”.

For `CCN(CC)CCCC(C)Nc1ccnc2cc(Cl)ccc12` (centres unmarked) [Chloroquine], the “inhibition of CpG-induced Src family kinase activation, or its dependent cellular responses” value in data set [2] is given as “does not inhibit”.

`CCN(CC)CCCC(C)Nc1ccnc2cc(Cl)ccc12.O=P(O)(O)O.O=P(O)(O)O` (centres unmarked) [chloroquine phosphate, 7-chloro-4-[[4-(diethylamino)-1-methylbutyl]amino]quinoline phosphate (1:2)]: the tolerability of infusion entry in data set [3] was “without complication”.

For the compound `CCN(CC)C(=S)SSC(=S)N(CC)CC` [disulfuram, 1-(diethylthiocarbamoyldisulfanyl)-N,N-diethyl-methanethioamide], the proteasomal activity result in data set [4] is on record as “inhibits proteasomal activity”.

As to `Cl.Cl.Nc1ccccc1Oc1ccc2c(N)nsc2c1` [Example M62812, 3-amino-6-(2-aminophenoxy)-1,2-benzisothiazole dihydrochloride], the “prevention of lethal septic shock” value in data set [5] was “prevents lethal septic shock”.
